Reference: patent publication US5183824A, “Azole derivatives and antifungal drugs containing the same as an active component” (Kao Corporation, priority 1989, dated 1993)
Converted amounts (≈) assume the structure as drawn.

Experiments:
[1] = test system: T. mentagrophytes (TIMM 1189); test: Antifungal activities (in vivo), guinea pig skin infection, retro-culture; parameters: species or system Hartley white female guinea pigs; details: guinea pigs, 1% test compound in white petrolatum applied once a day for 6 days from fifth day of inoculation
From the text: Hartley white female guinea pigs were used in this test. The back hair were depilated to form a round area having a diameter of 2 cm. 1×10^8microconidia of T. mentagrophytes (TIMM 1189) were inoculated therein for infection. From the fifth day of the inoculation, a composition containing 1% test compound (base: white petrolatum) was applied once a day for 6 consecutive days. Thereafter, the animals were left for 1 day, and slaughtered while removing the blood. The suffered skin was taken, cut and subjected to the retro-culture. The negative ratio of the strain was measured.

Candida sp. = test: Antifungal activities (in vitro), MIC on Sabouraud's agar medium; assay type: cell-based; details: 48 h, 37° C., growth evaluated two days after
Method: (§1) A plate of a series of diluted specimen was prepared under steriled conditions using Sabouraud's agar medium (glucose 2%, peptone 1%, agar 1.5%), to which 1 μl of each of the test fungus solutions was inoculated by using a quantitative platinum loop.

Trichophyton sp. = test: as above; assay type: cell-based; details: 168 h, 27° C., growth evaluated seven days after
Method: as §1

C. albicans (TIMM 0144) = test: Direct cell-membrane damaging (potassium ion leakage); assay type: cell-based; details: test compound 40 μg/ml, 15 minutes, atomic absorption spectrometry
Method: Direct cell-membrane damaging, which is one of the characteristic actions of azole antifungal drugs, was evaluated.
As a test strain, C. albicans (TIMM 0144) was used. Fresh cultures of C. albicans (TIMM 0144) were washed to make a deionized aqueous solution containing the same at a concentration of 1×10^8 /ml. In the presence of a test compound at a concentration of 40 μg/ml, potassium ion leakage concentration was measured 15 minutes after by way of atomic absorption spectrometry to evaluate the direct cell-membrane damaging.

Acute toxicity = details: mouse, in vivo, po; dosed orally on mice

Row | Structure (SMILES) | MIC (Candida sp.) | MIC (Trichophyton sp.) | Negative ratio (%) [1] | Potassium ion leakage rate (%) (C. albicans (TIMM 0144)) | LD50 (Acute toxicity)
1 | Clc1ccccc1C(c1ccccc1)(c1ccccc1)n1ccnc1 [Clotrimazole, clotrimazole, reference compound] |  |  | 24% |  | 
2 | CC(C)=CCC/C(C)=C/COC(Cn1ccnc1)c1ccc(Cl)cc1Cl (centres unmarked) [Compound 1, 1-[2-(2,4-dichlorophenyl)-2-((E)-3,7-dimethylocta-2,6-dienyloxy)ethyl]-1H-imidazole] | 40 µg/mL (≈ 102 µM) | 5 to 10 µg/mL (≈ 12.7 to 25.4 µM) | 95% | 81% | ≥ 1000 mg/kg
3 | CC(C)=CCC/C(C)=C/COC(Cn1ccnc1)c1ccccc1[N+](=O)[O-] (centres unmarked) [Compound 3, 1-[2-((E)-3,7-dimethylocta-2,6-dienyloxy)-2-(2-nitrophenyl)ethyl]-1H-imadazole] | 20 to 40 µg/mL (≈ 54.1 to 108 µM) | 0.16 to 5 µg/mL (≈ 0.433 to 13.5 µM) |  |  | 
4 | CC(C)=CCC/C(C)=C\COC(Cn1ccnc1)c1ccc(Cl)cc1Cl (centres unmarked) [Compound 6, 1-[2-(2,4-dichlorophenyl)-2-((Z)-3,7-dimethylocta-2,6-dienyloxy)ethyl]-1H-imidazole] | 20 to 40 µg/mL (≈ 50.8 to 102 µM) | 5 to 10 µg/mL (≈ 12.7 to 25.4 µM) | 89% | 74% | 
5 | CC(C)=CCC/C(C)=C/COC(Cn1cncn1)c1ccc(Br)cc1 (centres unmarked) [Compound 7, 1-[2-(4-bromophenyl)-2-((E)-3,7-dimethylocta-2,6-dienyloxy)ethyl]-1H-triazole] | > 80 µg/mL | > 80 µg/mL |  |  | 
6 | CC(C)=CCC/C(C)=C/CO/N=C(\Cn1ccnc1)c1ccc(Cl)cc1Cl [Compound 11, (Z)-1-(2,4-dichlorophenyl)-2-(1H-imidazole-1-yl)-O-((E)-3,7-dimethylocta-2,6-dienyl) ethanonoxime] | 40 µg/mL (≈ 98.4 µM) | 5 to 20 µg/mL (≈ 12.3 to 49.2 µM) |  |  | 
7 | Clc1ccc(COC(Cn2ccnc2)c2ccc(Cl)cc2Cl)c(Cl)c1 (centres unmarked) [Miconazole, miconazole, reference compound] |  |  | 27% |  | 

The next lines start with results.

Row | MIC (Candida sp.) | MIC (Trichophyton sp.) | Structure (SMILES) | Negative ratio (%) [1] | Potassium ion leakage rate (%) (C. albicans (TIMM 0144)) | LD50 (Acute toxicity)
8 | > 80 µg/mL | 40 to 80 µg/mL (≈ 86.7 to 173 µM) | CC(C)=CCC/C(C)=C/CC/C(C)=C/COC(Cn1ccnc1)c1ccc(Cl)cc1Cl (centres unmarked) [Compound 2, 1-[2-(2,4-dichlorophenyl)-2-((E,E)-3,7,11-trimethyldodeca-2,6,10-trienyloxy)ethyl]-1H-imidazole] |  | 55% | 
9 | 20 µg/mL (≈ 51 µM) | 1.25 to 20 µg/mL (≈ 3.18 to 51 µM) | CC(C)=CCC/C(C)=C/COC(Cn1ccnc1)c1ccccc1C(F)(F)F (centres unmarked) [Compound 4, 1-[2-((E)-3,7-dimethylocta-2,6-dienyloxy)-2-(2-trifluoromethylphenyl)ethyl]-1H-imidazole] |  |  | 
10 | 20 µg/mL (≈ 61.6 µM) | 5 µg/mL (≈ 15.4 µM) | CC(C)=CCC/C(C)=C/COC(Cn1ccnc1)c1ccccc1 (centres unmarked) [Compound 5, 1-[2-((E)-3,7-dimethylocta-2,6-dienyloxy)-2-phenylethyl]-1H-imidazole] |  |  | 
11 | 40 µg/mL (≈ 102 µM) | 10 to 20 µg/mL (≈ 25.5 to 51 µM) | CC(C)=CCC/C(C)=C/CNC(Cn1ccnc1)c1ccc(Cl)cc1Cl (centres unmarked) [Compound 8, 1-[2-(2,4-dichlorophenyl)-2-((E)-3,7-dimethylocta-2,6-dienylamino)ethyl]-1H-imidazole] | 46% | 65% | 
12 | 40 µg/mL (≈ 98.4 µM) | 10 to 20 µg/mL (≈ 24.6 to 49.2 µM) | CC(C)=CCC/C(C)=C/CN(C)C(Cn1ccnc1)c1ccc(Cl)cc1Cl (centres unmarked) [Compound 9, 1-[2-(2,4-dichlorophenyl)-2-{N-((E)-3,7-dimethylocta-2,6-dienyl)-N-methylamino}ethyl]-1H-imidazole] | 34% |  | 
13 | > 80 µg/mL | 20 µg/mL (≈ 48.8 µM) | CC(C)=CCC/C(C)=C/CSC(Cn1ccnc1)c1ccc(Cl)cc1Cl (centres unmarked) [Compound 10, 1-[2-(2,4-dichlorophenyl)-2-((E)-3,7-dimethylocta-2,6-dienylthio)ethyl]-1H-imidazole] | 37% | 47% | 
